Results from patent US9073954B2, “5-substituted benzimidazolium compounds” (Boehringer Ingelheim International GmbH, priority 2013, dated 2015).
Where two headings read alike, the source gives them in different places.

Experiments:
[1] = target: T1, ENaC (Epithelial Sodium Channel) (Mus musculus, UniProt Q61180+Q9WU38+Q9WU39); test: Ussing chamber: short circuit current in M-1 cells; assay type: cell-based
T1 construct: Mouse kidney M-1 cells were cultivated in DMEM; endogenous in cells; host or cells: mouse kidney M-1 cells
T1 sequence (Q61180 1-699): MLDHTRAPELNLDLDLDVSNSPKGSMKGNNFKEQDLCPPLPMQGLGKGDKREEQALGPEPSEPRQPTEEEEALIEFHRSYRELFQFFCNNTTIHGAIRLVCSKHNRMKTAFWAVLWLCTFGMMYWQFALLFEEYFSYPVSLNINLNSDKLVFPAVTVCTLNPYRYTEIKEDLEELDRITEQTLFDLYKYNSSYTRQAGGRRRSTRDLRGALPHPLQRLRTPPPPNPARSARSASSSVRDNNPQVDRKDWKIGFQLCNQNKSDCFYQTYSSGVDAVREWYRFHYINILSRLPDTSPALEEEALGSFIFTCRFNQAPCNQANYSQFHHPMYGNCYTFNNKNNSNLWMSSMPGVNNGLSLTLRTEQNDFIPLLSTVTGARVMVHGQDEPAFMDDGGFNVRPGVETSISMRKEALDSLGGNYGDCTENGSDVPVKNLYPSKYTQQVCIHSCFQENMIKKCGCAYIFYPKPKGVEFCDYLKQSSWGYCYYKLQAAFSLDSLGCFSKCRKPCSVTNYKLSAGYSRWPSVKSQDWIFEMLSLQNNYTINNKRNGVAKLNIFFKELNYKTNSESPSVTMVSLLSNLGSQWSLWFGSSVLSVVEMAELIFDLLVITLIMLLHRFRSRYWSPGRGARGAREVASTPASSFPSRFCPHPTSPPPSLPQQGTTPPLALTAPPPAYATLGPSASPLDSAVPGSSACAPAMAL
T1 sequence (Q9WU38 1-638): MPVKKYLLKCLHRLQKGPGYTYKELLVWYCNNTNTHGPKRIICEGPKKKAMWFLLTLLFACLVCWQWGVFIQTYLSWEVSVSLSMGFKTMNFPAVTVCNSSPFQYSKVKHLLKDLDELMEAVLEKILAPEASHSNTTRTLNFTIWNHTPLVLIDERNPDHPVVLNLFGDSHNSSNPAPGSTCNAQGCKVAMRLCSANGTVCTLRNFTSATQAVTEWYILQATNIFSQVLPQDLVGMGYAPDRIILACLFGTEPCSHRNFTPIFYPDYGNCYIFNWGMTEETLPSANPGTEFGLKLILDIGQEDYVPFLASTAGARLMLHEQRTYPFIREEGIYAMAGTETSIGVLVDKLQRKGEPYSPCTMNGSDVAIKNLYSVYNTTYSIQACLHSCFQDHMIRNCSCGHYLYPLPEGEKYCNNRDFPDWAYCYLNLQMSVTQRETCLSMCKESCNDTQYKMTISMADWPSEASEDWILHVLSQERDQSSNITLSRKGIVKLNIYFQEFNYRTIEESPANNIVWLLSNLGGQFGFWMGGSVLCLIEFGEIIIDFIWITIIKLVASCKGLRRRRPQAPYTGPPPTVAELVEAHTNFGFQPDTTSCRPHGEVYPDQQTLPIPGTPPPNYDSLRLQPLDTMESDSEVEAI
T1 sequence (Q9WU39 1-655): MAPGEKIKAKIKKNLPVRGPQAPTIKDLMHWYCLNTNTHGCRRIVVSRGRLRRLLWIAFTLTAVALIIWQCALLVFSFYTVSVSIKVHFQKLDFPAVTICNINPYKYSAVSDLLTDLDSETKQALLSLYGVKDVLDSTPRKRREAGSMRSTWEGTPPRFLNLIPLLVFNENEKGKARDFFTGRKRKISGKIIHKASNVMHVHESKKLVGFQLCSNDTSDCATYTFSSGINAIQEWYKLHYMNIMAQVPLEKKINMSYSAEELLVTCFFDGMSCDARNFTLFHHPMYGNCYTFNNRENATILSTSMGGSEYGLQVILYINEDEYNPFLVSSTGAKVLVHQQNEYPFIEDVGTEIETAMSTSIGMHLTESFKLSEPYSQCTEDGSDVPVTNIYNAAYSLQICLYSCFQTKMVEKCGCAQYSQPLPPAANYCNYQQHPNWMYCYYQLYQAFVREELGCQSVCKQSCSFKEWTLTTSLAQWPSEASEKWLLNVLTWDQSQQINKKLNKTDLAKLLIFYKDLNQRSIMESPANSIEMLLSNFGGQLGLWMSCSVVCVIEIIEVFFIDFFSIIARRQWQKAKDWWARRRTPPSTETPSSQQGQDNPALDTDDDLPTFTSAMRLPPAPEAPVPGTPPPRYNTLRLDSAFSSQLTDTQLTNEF
Experimental: Mouse kidney M-1 cells were cultivated in DMEM containing 5% FCS and 5 μM dexamethasone for 10 to 12 days on polyester transwell filters. Filters were inserted into a teflon-coated well-plate which fit into the ussing chamber system. Prior to measurement the medium of M-1 cells was replaced with Caco-2 transport buffer (Invitrogen, Germany). During measurements, the Ussing chamber temperature was kept at 37° C. Short circuit currents (I_sc) were measured in the voltage-clamp mode with the software package Lab View for data acquisition and analysis. The transepithelial electrical resistance (TEER) was determined by the application of voltage steps of ±5 mV every 5 sec. Compounds were administered at a final concentration of 3 μM or at increasing concentrations (1-3-10 μM) to the apical solution. At the end of each experiment the amiloride sensitive I_SC was measured by adding 3 μM amiloride to the apical compartment. Results are expressed as inhibition in percent of the amiloride effect or as IC50.
With the example compounds given above, the following IC50 values were determined in the Ussing Chamber assay: […]

[2] = Permeability in CALU-3 cells; assay type: in vitro ADME; details: human, CALU-3 monolayers, 10 μM compound, pH 7.4, 37° C.; for Papp A→B at 90 min, 10 μM: apical-to-basal; for Papp B→A at 90 min, 10 μM: basal-to-apical
Experimental: Permeability in CALU-3 Cells:
Permeability measurements across polarized, confluent CALU-3 cell monolayers grown on permeable filter supports are used to provide information on the potential of a compound to pass the lung epithelium. Apparent permeability coefficients (Papp) of the compounds across the CALU-3 cell monolayers are measured (pH 7.4, 37° C.) in apical-to-basal (AB) and basal-toapical (BA) transport direction.
CALU-3 cells (1-2×10^5 cells/1 cm^2 area) are seeded on filter inserts (Costar transwell polycarbonate filters, 0.4 μm pore size) and cultured (for 10-12 days DMEM) until tight monolayers are formed. Compounds of interest are dissolved in appropriate solvent (DMSO, 10 mM stock solution). Stock solutions are diluted with HTP-4 buffer (128.13 mM NaCl, 5.36 mM KC, 1 mM MgSO4, 1.8 mM CaCl2, 4.17 mM NaHCO3, 1.19 mM Na2HPO4×7H2O, 0.41 mM NaH2PO4xH2O, 15 mM HEPES, 20 mM glucose, 0.25% BSA, pH 7.4) to prepare the transport solutions (10 μM compound, final DMSO<=0.5%). The transport solution (TL) is applied to the apical or basolateral donor side for measuring A-B or B-A permeability (3 filter replicates), respectively. The receiver side contains the same buffer as the donor side. After 30 min of accommodation, samples are collected at the start t0=0 min and at the end of the experiment tn=90 min from the donor and at 0, 30, 60, and 90 min also from the receiver chamber. Volume removed is replenished by HTP-4 buffer. The compound concentration in the samples is measured by HPLC-MS/MS or scintillation counting. The permeability coefficient (Papp) and efflux ratio are calculated according to: Papp [cm/s]=(concentration receiver [nM]*volume receiver [mL]/time interval [sec])*(1/filter area)*(1/donor concentration [nM])
With example compounds given above, the following permeability values were determined in the CALU-3 cells assay: […]

[3] = Ussing chamber, mouse kidney M-1 cells, amiloride sensitive I_SC, apical application, 37° C., read-out: IC50

## CCOP(=O)([O-])CCCOc1ccc2c(c1)n(CC)c(CNC(=O)c1nc(Cl)c(N)nc1N)[n+]2CCOC [Example 1.1]
[1]; [3]
  IC50: 11 nM
[2]
  Papp A→B at 90 min, 10 μM: 0.1 ×10⁻⁶ cm/s
  Papp B→A at 90 min, 10 μM: 0.03 ×10⁻⁶ cm/s

## CCn1c(CNC(=O)c2nc(Cl)c(N)nc2N)[n+](CC)c2ccc(CNC(=O)OCC3c4ccccc4-c4ccccc43)cc21 [Example 1.2]
[1]; [3]
  IC50: 9 nM

## CCn1c(CNC(=O)c2nc(Cl)c(N)nc2N)[n+](CC)c2cc(Cl)c(N(CCO)CCO)cc21 [Example 1.3]
[1]; [3]
  IC50: 2 nM

## CCn1c(CNC(=O)c2nc(Cl)c(N)nc2N)[n+](CC)c2ccc(OCCNC(=O)OC(C)(C)C)cc21 [Example 1.4]
[1]; [3]
  IC50: 0.4 nM

## CCn1c(CNC(=O)c2nc(Cl)c(N)nc2N)[n+](CC)c2cc(Cl)c(O[C@H]3CO[C@H]4[C@@H]3OC[C@@H]4O)cc21 [Example 1.5]
[1]; [3]
  IC50: 1 nM
[2]
  Papp A→B at 90 min, 10 μM: 0.3 ×10⁻⁶ cm/s
  Papp B→A at 90 min, 10 μM: 0.1 ×10⁻⁶ cm/s

## CCn1c(CNC(=O)c2nc(Cl)c(N)nc2N)[n+](C[C@H](C)O)c2cc(OCCN)ccc21 [Example 1.7]
[1]; [3]
  IC50: 2 nM
[2]
  Papp A→B at 90 min, 10 μM: 0.03 ×10⁻⁶ cm/s
  Papp B→A at 90 min, 10 μM: 0.05 ×10⁻⁶ cm/s

## CCOP(=O)(CCCOc1ccc2c(c1)n(CC)c(CNC(=O)c1nc(Cl)c(N)nc1N)[n+]2CC)OCC [Example 3.1]
[1]; [3]
  IC50: 3 nM

## CCn1c(CNC(=O)c2nc(Cl)c(N)nc2N)[n+](CC)c2cc(Cl)c(OCCOCCOC)cc21 [Example 3.2]
[1]; [3]
  IC50: 0.5 nM

## CCn1c(CNC(=O)c2nc(Cl)c(N)nc2N)[n+](CC)c2ccc(O[C@H](C)C(=O)N3CCNC(=O)C3)cc21 [Example 3.3]
[1]; [3]
  IC50: 1 nM

## CCNC(=O)COc1ccc2c(c1)n(C(C)C)c(CNC(=O)c1nc(Cl)c(N)nc1N)[n+]2CC [Example 3.4]
[1]; [3]
  IC50: 1 nM

## CCNC(=O)[C@H](C)Oc1ccc2c(c1)n(CC)c(CNC(=O)c1nc(Cl)c(N)nc1N)[n+]2CC [Example 3.6]
[1]; [3]
  IC50: 1 nM

## CC[n+]1c(CNC(=O)c2nc(Cl)c(N)nc2N)n(CCCCCO)c2cc(O)ccc21 [Example 3.7]
[2]
  Papp A→B at 90 min, 10 μM: 0.7 ×10⁻⁶ cm/s
  Papp B→A at 90 min, 10 μM: 0.3 ×10⁻⁶ cm/s

## CCn1c(CNC(=O)c2nc(Cl)c(N)nc2N)[n+](C)c2ccc(O)cc21 [Example 3.9]
[1]; [3]
  IC50: 1 nM

## CCn1c(CNC(=O)c2nc(Cl)c(N)nc2N)[n+](CC)c2ccc(O)cc21 [Example 3.10]
[1]; [3]
  IC50: 0.2 nM

## CCOP(=O)(CCCOc1ccc2c(c1)n(CC)c(CNC(=O)c1nc(Cl)c(N)nc1N)[n+]2CCOC)OCC [Example 3.13]
[1]
  IC50: 2 nM

## CCNC(=O)COc1ccc2c(c1)n(CC)c(CNC(=O)c1nc(Cl)c(N)nc1N)[n+]2CC [Example 3.14]
[1]; [3]
  IC50: 0.3 nM

## CCn1c(CNC(=O)c2nc(Cl)c(N)nc2N)[n+](CC)c2ccc(O[C@@H]3CO[C@H]4[C@@H]3OC[C@H]4O)cc21 [Example 3.15]
[1]; [3]
  IC50: 3 nM

## CCn1c(CNC(=O)c2nc(Cl)c(N)nc2N)[n+](CC)c2ccc(OCCCP(=O)([O-])O)cc21 [Example 4.1]
[1]; [3]
  IC50: 11 nM

## CCn1c(CNC(=O)c2nc(Cl)c(N)nc2N)[n+](CC)c2ccc(OCCNCC(=O)[O-])cc21 [Example 5.1]
[1]; [3]
  IC50: 5 nM

## CCn1c(CNC(=O)c2nc(Cl)c(N)nc2N)[n+](CC)c2ccc(CN)cc21 [Example 6.1]
[1]; [3]
  IC50: 1 nM

## CCn1c(CNC(=O)c2nc(Cl)c(N)nc2N)[n+](CC)c2ccc(OCCN)cc21 [Example 6.2]
[1]; [3]
  IC50: 1 nM

## CCNC(=O)c1cc2c(cc1OCC(=O)N1CCNCC1)n(CC)c(CNC(=O)c1nc(Cl)c(N)nc1N)[n+]2CC [Example 6.3]
[1]; [3]
  IC50: 4 nM

## CCn1c(CNC(=O)c2nc(Cl)c(N)nc2N)[n+](CC)c2ccc(OCCNC(=O)C[N+](C)(C)C)cc21 [Example 8.1]
[1]; [3]
  IC50: 0.4 nM

## CCn1c(CNC(=O)c2nc(Cl)c(N)nc2N)[n+](CC)c2ccc(CNC(=O)C[N+](C)(C)C)cc21 [Example 8.2]
[1]; [3]
  IC50: 5 nM

## CCn1c(CNC(=O)c2nc(Cl)c(N)nc2N)[n+](CC)c2ccc(C[N+](C)(C)C)cc21 [Example 8.3]
[1]; [3]
  IC50: 2 nM

## CCn1c(CNC(=O)c2nc(Cl)c(N)nc2N)[n+](CC)c2ccc(OCCNCC(=O)OC)cc21 [Example 9.1]
[1]; [3]
  IC50: 2 nM

## CCn1c(CNC(=O)c2nc(Cl)c(N)nc2N)[n+](CC)c2ccc(OCCNC(=N)N)cc21 [Example 10.1]
[1]; [3]
  IC50: 0.3 nM

## CCn1c(CNC(=O)c2nc(Cl)c(N)nc2N)[n+](CC)c2ccc(CNC(=O)COc3cc(C(=O)N[C@H]4CC[C@H](N(C)C)CC4)cc(C(=O)N[C@H]4CC[C@H](N(C)C)CC4)c3)cc21 [Example 11.1]
[1]; [3]
  IC50: 2 nM
